Data: article PMC10244465, “Native American ataxia medicines rescue ataxia-linked mutant potassium channel activity via binding to the voltage sensing domain” (Nature Communications, 2023)
Like-named read-outs stand apart in the source and are kept apart here.

Columns and labels:
wild-type Kv1.1 = system: wild-type Kv1.1; set-up: method as in PMID 28391996; details: prepulse current at −50 mV, 10 µM; cited from earlier work
wild-type human Kv1.1 = molecular target: T1, wild-type human Kv1.1 (Homo sapiens, UniProt Q09470); test: Two-electrode voltage clamp of oocytes expressing wild-type Kv1.1; assay type: cell-based; details: for effect on Kv1.1 activity: compound 100 µM; for EM (unclamped oocyte membrane potential) / Slope / V0.5 Normalized tail current: in presence of 100 µM compound
T1 construct: expressed in transfected cells; host or cells: Xenopus laevis oocytes injected with cRNA (pTLNx vector)
T1 sequence (Q09470 whole entry): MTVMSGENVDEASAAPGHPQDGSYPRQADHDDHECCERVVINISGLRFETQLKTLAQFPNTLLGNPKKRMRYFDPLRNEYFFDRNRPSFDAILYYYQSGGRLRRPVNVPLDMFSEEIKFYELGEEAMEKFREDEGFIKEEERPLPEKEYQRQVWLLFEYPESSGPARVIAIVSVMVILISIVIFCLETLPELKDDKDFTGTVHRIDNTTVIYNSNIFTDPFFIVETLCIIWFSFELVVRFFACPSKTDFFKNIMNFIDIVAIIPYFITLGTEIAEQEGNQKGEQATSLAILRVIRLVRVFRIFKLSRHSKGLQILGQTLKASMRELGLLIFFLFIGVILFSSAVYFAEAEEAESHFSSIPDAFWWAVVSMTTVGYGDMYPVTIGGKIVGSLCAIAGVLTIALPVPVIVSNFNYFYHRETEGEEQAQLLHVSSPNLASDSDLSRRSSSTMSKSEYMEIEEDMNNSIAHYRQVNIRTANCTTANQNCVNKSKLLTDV
Description: Wild-type and mutant Kv1 cDNAs were generated (Genscript, Piscataway, NJ) in the pTLNx expression vector. As previously described, we generated cRNA transcripts encoding human Kv1.1 (wild-type and mutant) and Kv1.2, by in vitro transcription using the mMessage mMachine kit (Thermo Fisher Scientific), after vector linearization, from cDNA sub-cloned into plasmids (pTLNx) incorporating Xenopus laevis β-globin 5’ and 3’ UTRs flanking the coding region to enhance translation and cRNA stability. We injected defolliculated stage V and VI Xenopus laevis oocytes (Xenoocyte, Dexter, MI, US) with Kv1 cRNAs (1–5 ng). We incubated the oocytes at 16 °C in ND96 oocyte storage solution containing penicillin and streptomycin, with daily washing, for 2 days prior to two-electrode voltage-clamp (TEVC) recording.
We performed TEVC at room temperature using an OC-725C amplifier (Warner Instruments, Hamden, CT) and pClamp10 software (Molecular Devices, Sunnyvale, CA) 2 days after cRNA injection as described in the section above. For recording, oocytes we placed in a small-volume oocyte bath (Warner) and viewed with a dissection microscope. We sourced chemicals from Sigma. We studied effects of plant extracts and of compounds, solubilized directly in bath solution (in mM): 96 NaCl, 4 KCl, 1 MgCl2, 1 CaCl2, 10 HEPES (pH 7.6). We introduced extracts or compounds into the oocyte recording bath by gravity perfusion at a constant flow of 1 ml per minute for 3 min prior to recording. Pipettes were of 1–2 MΩ resistance when filled with 3 M KCl. We recorded currents in response to voltage pulses between −80 mV and +40 mV at 10 or 20 mV intervals from a holding potential of −80 mV, to yield current-voltage relationships and examine activation kinetics. To calculate the voltage dependence of activation (V0.5), tail currents were recorded at a voltage pulse of −50 mV immediately following prepulse voltages between −80 mV and +40 mV. We analyzed data using Clampfit (Molecular Devices) and Graphpad Prism software (GraphPad, San Diego, CA, USA), stating values as mean ± SEM. We plotted raw or normalized tail currents vs. prepulse voltage and fitted with a single Boltzmann function:1 g=(A1−A2)/1+exp[V1/2−V/Vs]y+A2 where g is the normalized tail conductance, A1 is the initial value at -∞, A2 is the final value at +∞, V1/2 is the half-maximal voltage of activation and Vs the slope factor.

[1] = set-up: method as in earlier work; details: following massage with lavender oil; cited from earlier work
wild-type human Kv1.2 = molecular target: T2, wild-type human Kv1.2 (Homo sapiens, UniProt P16389); test: Two-electrode voltage clamp of oocytes expressing wild-type Kv1.2; assay type: cell-based
T2 construct: expressed in transfected cells; host or cells: Xenopus laevis oocytes injected with cRNA (pTLNx vector)
T2 sequence (P16389 whole entry): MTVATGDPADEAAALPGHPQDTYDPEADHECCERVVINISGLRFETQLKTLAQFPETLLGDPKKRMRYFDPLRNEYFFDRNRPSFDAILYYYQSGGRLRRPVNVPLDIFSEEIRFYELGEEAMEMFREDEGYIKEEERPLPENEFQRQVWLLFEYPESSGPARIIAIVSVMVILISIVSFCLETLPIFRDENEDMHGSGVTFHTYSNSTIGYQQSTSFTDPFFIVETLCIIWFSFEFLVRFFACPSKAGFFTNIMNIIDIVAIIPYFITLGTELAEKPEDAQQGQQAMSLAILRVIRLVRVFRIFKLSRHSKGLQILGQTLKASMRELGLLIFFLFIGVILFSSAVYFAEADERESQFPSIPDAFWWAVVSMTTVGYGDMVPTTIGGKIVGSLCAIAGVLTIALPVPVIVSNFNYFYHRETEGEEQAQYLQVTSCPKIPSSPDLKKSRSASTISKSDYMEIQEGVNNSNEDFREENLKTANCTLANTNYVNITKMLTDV
Protocol: We therefore first tested for activity of extracts (diluted 1:50 in bath solution to equal 5 mg plant solid starting material per ml) of each of the three plants on wild-type human Kv1.1 and closely related Kv1.2 expressed in Xenopus laevis oocytes, using manual two-electrode voltage clamp (TEVC). Strikingly, all three extracts altered Kv1 channel activity. […] Pacific ninebark (roots or leaves) had similar effects on Kv1.1 but negligible effects on Kv1.2.
We purchased live Urtica dioica (Common Nettle) from Crimson Sage Nursery (Orleans, CA, USA), cultivated it in Irvine CA, collected the aerial portions (primarily leaves) and then froze them until the day of extraction. We purchased Physocarpus capitatus (Pacific ninebark) live whole plant from Ozark Wildflower Company (Jasper, AR, USA) and separated the roots and aerial parts before extraction of each. We homogenized plant samples using a bead mill with porcelain beads in batches in 50 ml tubes (Omni International, Kennesaw, GA, United States). We purchased certified organic tree bark powders from Mountain Rose Herbs (Eugene, OR, USA) and dry raw Sophora japonica (fine pellets) from Teriya (People’s Republic of China). We purchased bladderwrack kelp extract capsules from Terra Vita (Brampton, Ontario, Canada) and discarded the outer capsule before extraction. We resuspended all plant powders and homogenates in 80% methanol/20% water (100 ml per 5 g solid) and then incubated for 48 h at room temperature, occasionally inverting the bottles to resuspend the extracts. We next filtered the extracts through Whatman filter paper #1 (Whatman, Maidstone, UK), and then removed the methanol using evaporation in a fume hood for 24–48 h at room temperature. We next centrifuged extracts for 10 min at 15 °C, 4000 RCF to remove the remaining particulate matter, followed by storage at −20 °C. On the day of electrophysiological recording, we thawed the extracts and diluted them 1:50 in bath solution (see below), to equal 5 mg plant solid starting material per ml, immediately before use.
Wild-type and mutant Kv1 cDNAs were generated (Genscript, Piscataway, NJ) in the pTLNx expression vector. […]
(§1) We performed TEVC at room temperature using an OC-725C amplifier (Warner Instruments, Hamden, CT) and pClamp10 software (Molecular Devices, Sunnyvale, CA) 2 days after cRNA injection as described in the section above. […] We recorded currents in response to voltage pulses between −80 mV and +40 mV at 10 or 20 mV intervals from a holding potential of −80 mV, to yield current-voltage relationships and examine activation kinetics. To calculate the voltage dependence of activation (V0.5), tail currents were recorded at a voltage pulse of −50 mV immediately following prepulse voltages between −80 mV and +40 mV. […]

Kv1.1-E283K channels = molecular target: T3, Kv1.1-E283K channels (Homo sapiens, UniProt Q09470, E283K); test: TEVC of oocytes injected with 100% Kv1.1-E283K cRNA; assay type: cell-based; details: compound 1 µM
T3 construct: expressed in transfected cells; host or cells: Xenopus laevis oocytes
T3 sequence (Q09470 whole entry E283K): as the sequence (Q09470 whole entry) above, with E283K counted along it

Kv1.1-L328V channels = molecular target: T4, Kv1.1-L328V channels (Homo sapiens, UniProt Q09470, L328V); test: TEVC of oocytes expressing 100% Kv1.1-L328V; assay type: cell-based; details: compound 1 µM
T4 construct: expressed in transfected cells; host or cells: Xenopus laevis oocytes
T4 sequence (Q09470 whole entry L328V): as the sequence (Q09470 whole entry) above, with L328V counted along it
Description: (§2) EA1 mutant G311D is in the S4-5 linker of Kv1.1 (Fig. 5a) and produces a 65% prepulse current reduction both in Kv1.1-G311D and in Kv1.1/Kv1.1-G311D channels[43],[44]; either channel type was minimally responsive to the plant extracts tested (Supplementary Figs. 3 and 4). EA1 mutant L328V (which is associated with tetany and hypomagnesemia) is located in the intracellular end of Kv1.1 S5 (Fig. 5a) and results in complete current loss in a dominant negative manner, i.e., Kv1.1-L328V and Kv1.1/Kv1.1-L328V channels are each nonfunctional. The traditional ataxia remedy plant extracts were unable to rescue Kv1.1-L328V or Kv1.1/Kv1.1-L328V function (Supplementary Figs. 5 and 6). EA1 mutant V408A is in the intracellular-proximal end of Kv1.1 S6 (Fig. 5a) and reduces current, speeds deactivation, and increases C-type inactivation of Kv1.1[46]. Here, Native American ataxia remedy extracts had relatively minor effects on Kv1.1-V408A activity, with nettle and Pacific ninebark (roots or leaves) inducing hyperpolarizing shifts in EM, and Pacific ninebark leaves inducing a negative shift in the voltage dependence of activation, although this was not quantifiable due to the very small tail currents (Supplementary Fig. 7). Effects of the extracts on Kv1.1/Kv1.1-V408A activity were also relatively minor (Supplementary Fig. 8). […]
as §1, with “mV. We analyzed data using Clampfit (Molecular Devices) and Graphpad Prism software (GraphPad, San Diego, CA, USA), stating values as mean ± SEM.” for “mV.”

Kv1.1-V408A channels = molecular target: T5, Kv1.1-V408A channels (Homo sapiens, UniProt Q09470, V408A); test: TEVC of oocytes expressing 100% Kv1.1-V408A; assay type: cell-based; details: compound 1 µM
T5 construct: expressed in transfected cells; host or cells: Xenopus laevis oocytes
T5 sequence (Q09470 whole entry V408A): as the sequence (Q09470 whole entry) above, with V408A counted along it
Description: as §2
as §1, with “mV. We analyzed data using Clampfit (Molecular Devices) and Graphpad Prism software (GraphPad, San Diego, CA, USA), stating values as mean ± SEM.” for “mV.”

[2] = dose response, Fig. 4, read-out: EC50 for ΔV0.5activation

Row | Compound | effect on Kv1.1 activity (wild-type human Kv1.1) | EM (unclamped oocyte membrane potential) (wild-type human Kv1.1) [mV] | Slope (wild-type human Kv1.1) [mV] | V0.5 Normalized tail current (wild-type human Kv1.1) [mV] | other results
1 | C=C[C@@]1(C)C=C2CC[C@@H]3[C@](C)(CCC[C@@]3(C)C(=O)O)[C@H]2CC1 [Pimaric acid] |  |  |  |  | increase of wild-type Kv1.1 currents (wild-type Kv1.1): up to eightfold
2 | O.Oc1cc(O)c2c(c1)O[C@H](c1ccc(O)c(O)c1)[C@@H](O)C2 [catechin hydrate] | did not alter Kv1.1 activity | -31.33 ± 2.31 | 5.83 ± 0.38 | -14.70 ± 0.44 | 
3 | O=c1cccc2n1C[C@@H]1CNC[C@H]2C1 [cytisine] | did not alter Kv1.1 activity | -41.60 ± 1.77 | 8.15 ± 1.31 | -23.96 ± 1.37 | 
4 | C=CC(C)(O)CCC=C(C)C (stereo not shown) [linalool] |  |  |  |  | time to peak levels in the blood [1]: under 20 min
5 | C=CC(C)(CCC=C(C)C)OC(C)=O (stereo not shown) [linalyl acetate] |  |  |  |  | time to peak levels in the blood [1]: under 20 min
6 | O=C1CCC[C@@H]2[C@H]3CCC[N+]4([O-])CCC[C@@H](CN12)[C@@H]34 (stereo partly shown) [oxymatrine] | no effect | -39.88 ± 2.34 | 8.73 ± 0.24 | -21.86 ± 0.64 | 

Continued, in another order:

Row | effect on Kv1.1 activity (wild-type human Kv1.1) | EM (unclamped oocyte membrane potential) (wild-type human Kv1.1) [mV] | Slope (wild-type human Kv1.1) [mV] | V0.5 Normalized tail current (wild-type human Kv1.1) [mV] | Compound | other results
7 | did not alter Kv1.1 activity | -45.25 ± 1.83 | 8.68 ± 0.87 | -22.40 ± 0.84 | O=c1c(O)c(-c2ccc(O)cc2)oc2cc(O)cc(O)c12 [kaempferol] | 
8 | did not alter Kv1.1 activity | -43.50 ± 1.46 | 6.00 ± 1.06 | -25.12 ± 1.81 | O=c1c(O)c(-c2ccc(O)c(O)c2)oc2cc(O)cc(O)c12 [quercetin] | 
9 | lesser but still robust opening effect | -56.75 ± 0.28 | 11.79 ± 2.88 | -31.59 ± 3.22 | C[C@@H]1O[C@@H](OC[C@H]2O[C@@H](Oc3c(-c4ccc(O)c(O)c4)oc4cc(O)cc(O)c4c3=O)[C@H](O)[C@@H](O)[C@@H]2O)[C@H](O)[C@H](O)[C@H]1O [rutin] | EC50 (wild-type human Kv1.1; [2]): 385 ± 12 nM; EC50 (wild-type human Kv1.1; oocytes expressing wild-type Kv1.1, read-out: EC50 for hyperpolarization of EM): 150 ± 38 nM; EC50 (wild-type human Kv1.2; [2]): 72 ± 16 nM; EC50 (wild-type human Kv1.2; oocytes expressing Kv1.2, read-out: EC50 for hyperpolarization of EM): 406 ± 62 nM; effect on channel activity (Kv1.1-E283K channels): ineffective; effect on channel activity (Kv1.1-L328V channels): ineffective; effect on channel activity (Kv1.1-V408A channels): ineffective
